The values that follow come from patent publication US9012412B2, “Dual SGLT1/SGLT2 inhibitors” (Janssen Pharmaceutica NV, priority 2013, dated 2015).

The target in one assay is T1, human SGLT2 (Homo sapiens, UniProt P31639).
T1 construct: expressed in transfected cells
T1 sequence (P31639 1-672): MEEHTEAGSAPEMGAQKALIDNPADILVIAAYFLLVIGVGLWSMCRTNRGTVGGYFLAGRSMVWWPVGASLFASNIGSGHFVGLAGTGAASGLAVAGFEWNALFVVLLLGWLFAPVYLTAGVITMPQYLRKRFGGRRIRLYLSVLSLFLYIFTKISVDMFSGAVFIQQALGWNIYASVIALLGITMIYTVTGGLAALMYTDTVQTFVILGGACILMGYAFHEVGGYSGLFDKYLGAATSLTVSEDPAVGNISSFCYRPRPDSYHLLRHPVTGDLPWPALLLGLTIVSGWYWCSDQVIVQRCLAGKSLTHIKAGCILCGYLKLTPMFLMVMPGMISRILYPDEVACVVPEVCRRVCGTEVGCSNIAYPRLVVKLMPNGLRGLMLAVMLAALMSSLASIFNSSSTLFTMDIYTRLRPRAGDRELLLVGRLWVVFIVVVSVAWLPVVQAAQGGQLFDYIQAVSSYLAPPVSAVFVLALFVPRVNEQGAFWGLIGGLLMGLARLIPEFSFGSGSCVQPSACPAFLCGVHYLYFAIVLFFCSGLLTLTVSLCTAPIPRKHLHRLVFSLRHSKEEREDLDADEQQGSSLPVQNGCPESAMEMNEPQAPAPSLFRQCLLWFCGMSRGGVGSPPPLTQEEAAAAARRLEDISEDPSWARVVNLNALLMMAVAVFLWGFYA
The assay can be described thus: Sodium-dependent 14C-methyl-α-D-glucopyranoside uptake in CHO-K1 cells stably expressing human SGLT2. In kind it is cell-based. The settings on record: for IC50: 14C-methyl-α-D-glucopyranoside uptake; for inhibition at 3 µM: compound at 3 μM; for inhibition at 0.3 µM: compound at 0.3 μM. The procedure:
(§1) SGLT1 and SGLT2 were cloned in form of cDNA from human small intestine (Genbank M24847), and from human kidney (Genbank M95549), respectively. Subsequently, each full cDNA was subcloned into pcDNA with each construct's integrity verified through follow-on sequencing. To generate CHO-K1 cells that stably express human SGLT1 or human SGLT2 CHO-K1 cells were transfected using DMRIE-C reagent (Life Technologies, Gaithersburg, Md.). Transfected cells were then selected in the presence of 500 μg/ml of the antibiotic G418 (Gibco-BRL, Grand Island, N.Y.). Individual clones were then characterized using the following cell-based assay for sodium-dependent glucose transport.
(§2) First, cell lines stably expressing human SGLT1 or SGLT2 were seeded at a density of 65,000 cells per well per 200 μl cell culture medium with 10 mM of NaButyrate (Aldrich Catalog No. 30341-0) in a 96-well flat bottom plate (COSTAR, Catalog No. 3903). For human SGLT1 or SGLT2 expressing CHO-K1 cells the culture medium comprised Ham's F-12 (Invitrogen Catalog No. 31765), Fetal Bovine Serum (Invitrogen Catalog No. 16000), G418 (Geneticin, Cellgro Catalog No. 30234-CI), Phlorizidin (Sigma Catalog No. P3449), DPBS (Cellgro Catalog No. 21030-CV), ^14C-methyl-α-D-glucopyranoside (Amersham Catalog No. CFB 76), and Methyl-α-D-glucopyranoside (Sigma Catalog No. M-9376).
(§3) The cells were allowed to incubate for 24 hours. Subsequently, the medium was aspirated from the plates and the cells were washed one time with 150 μl assay buffer and incubate 15 min with another 150 μl assay buffer which comprised 50 mM HEPES pH 7.4, 20 mM Tris Base, 5 mM KCl, 1 mM MgCl2, 1 mM CaCl2, and 137 mM NaCl. After removing the wash buffer, 40 μl assay buffer and 10 μl compound solution was added to each well, which was again allowed to incubate for 10 min.
(§4) Following the 10 min incubation, 10 μl of serial diluted Methyl-α-D-glucopyranoside (Sigma Catalog No. M-9376) containing 0.07 μCi ^14C-methyl-α-D-glucopyranoside (Amersham Catalog No. CFB 76) was added to the appropriate well and allowed to incubate for another 2 hours. ^14C-methyl-α-D-glucopyranoside (Sigma Catalog No. M-9376, St. Louis, Mo.) is a non-metabolizable glucose analog specific for sodium-dependent glucose transporters as previously described by H. Peng and J. E. Lever in “Post-transcriptional regulation of Na+/glucose cotransporter (SGLT1) gene expression in LLC-PK1 cells,” J. Biol. Chem. 270, 20536-42 (1995).
(§5) Next, the plates were twice washed with 150 μl of ice-cold DPBS (Cellgro Catalog No. 21030) that was then completely removed from the plates before adding 50 μl of MicroScint™-20 (Packard Catalog No. 6013621) to each well for a 20 min or longer incubation time.
(§6) Sodium-dependent ^14C-methyl-α-D-glucopyranoside uptake was quantified by measuring radioactivity. Plates were counted in a TopCount (Packard, Meriden, Conn.). Results are reported as the %-inhibition or IC50 value from a representative experiment. Variability for the functional assay was typically within 20%.

A further assay deals with T2, human SGLT1 (Homo sapiens, UniProt P13866).
T2 construct: expressed in transfected cells
T2 sequence (P13866 1-664): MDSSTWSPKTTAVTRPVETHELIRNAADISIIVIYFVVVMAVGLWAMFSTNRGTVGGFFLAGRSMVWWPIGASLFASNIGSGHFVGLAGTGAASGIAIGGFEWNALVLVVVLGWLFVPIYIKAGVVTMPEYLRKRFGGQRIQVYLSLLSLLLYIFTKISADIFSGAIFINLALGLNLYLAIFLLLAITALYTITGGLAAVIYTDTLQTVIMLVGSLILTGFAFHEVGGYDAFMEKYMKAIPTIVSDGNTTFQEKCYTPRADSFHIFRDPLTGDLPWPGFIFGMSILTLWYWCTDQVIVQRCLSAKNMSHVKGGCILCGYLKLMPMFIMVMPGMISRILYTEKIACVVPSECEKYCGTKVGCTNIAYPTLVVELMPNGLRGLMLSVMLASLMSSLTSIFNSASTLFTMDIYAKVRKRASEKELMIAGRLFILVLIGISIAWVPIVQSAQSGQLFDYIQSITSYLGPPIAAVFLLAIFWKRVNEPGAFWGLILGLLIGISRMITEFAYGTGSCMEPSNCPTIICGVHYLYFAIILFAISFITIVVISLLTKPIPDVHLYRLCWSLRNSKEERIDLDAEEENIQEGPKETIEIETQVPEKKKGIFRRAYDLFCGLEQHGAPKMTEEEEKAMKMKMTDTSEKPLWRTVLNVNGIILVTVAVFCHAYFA
Briefly: Sodium-dependent 14C-methyl-α-D-glucopyranoside uptake in CHO-K1 cells stably expressing human SGLT1. In kind it is cell-based. The settings on record: for IC50: 14C-methyl-α-D-glucopyranoside uptake; for inhibition at 3 µM: compound at 3 μM. The procedure: as §1, §2, §3, §4, §5, §6

For `Cc1cc(O)c([C@@H]2O[C@H](CO)C[C@H](O)[C@H]2O)cc1Cc1cc2ccccc2s1` [Cpd 1, (2S,3R,4S,6S)-2-(5-(benzo[b]thiophen-2-ylmethyl)-2-hydroxy-4-methylphenyl)-6-(hydroxymethyl)tetrahydro-2H-pyran-3,4-diol], the results for the IC50 at human SGLT2 and at human SGLT1 were 16 nM and 117 nM, respectively.

With `COc1cc(O)c([C@@H]2O[C@H](CO)C[C@H](O)[C@H]2O)cc1Cc1cc2ccccc2s1` [Cpd 2, (2S,3R,4S,6S)-2-(5-(benzo[b]thiophen-2-ylmethyl)-2-hydroxy-4-methoxyphenyl)-6-(hydroxymethyl)tetrahydro-2H-pyran-3,4-diol], the IC50 against human SGLT2 came to 114 nM; on human SGLT1 it was 155 nM.

Take `OC[C@@H]1C[C@H](O)[C@@H](O)[C@H](c2cc(Cc3cc4ccccc4s3)c(Cl)cc2O)O1` [Cpd 3, (2S,3R,4S,6S)-2-(5-(benzo[b]thiophen-2-ylmethyl)-4-chloro-2-hydroxyphenyl)-6-(hydroxymethyl)tetrahydro-2H-pyran-3,4-diol]: the IC50 against human SGLT2 was determined as 22 nM; at human SGLT1 it was 115 nM.

In the case of `OC[C@@H]1C[C@H](O)[C@@H](O)[C@H](c2cc(Cc3cc4ccccc4s3)c(F)cc2O)O1` [Cpd 4, (2S,3R,4S,6S)-2-(5-(benzo[b]thiophen-2-ylmethyl)-4-fluoro-2-hydroxyphenyl)-6-(hydroxymethyl)-tetrahydro-2H-pyran-3,4-diol], the IC50 on human SGLT2 stood at 128 nM; on human SGLT1, 893 nM.

For `COc1cc(O)c([C@@H]2O[C@H](CO)C[C@H](O)[C@H]2O)cc1C(=O)c1cc2ccccc2s1` [Cpd 5, benzo[b]thiophen-2-yl(5-((2S,3R,4S,6S)-3,4-dihydroxy-6-(hydroxymethyl)tetrahydro-2H-pyran-2-yl)-4-hydroxy-2-methoxyphenyl)methanone], the inhibition at 3 µM on human SGLT2 and at human SGLT1 was 0% throughout.

Turning to `Cc1cc(O)c([C@@H]2O[C@H](CO)C[C@H](O)[C@H]2O)cc1C(=O)c1cc2ccccc2s1` [Cpd 6, benzo[b]thiophen-2-yl(5-((2S,3R,4S,6S)-3,4-dihydroxy-6-(hydroxymethyl)-tetrahydro-2H-pyran-2-yl)-4-hydroxy-2-methylphenyl)methanone], the inhibition at 3 µM on human SGLT2 and at human SGLT1 was 0% in each case.

Consider `C=C(c1cc2ccccc2s1)c1cc([C@@H]2O[C@H](CO)C[C@H](O)[C@H]2O)c(O)cc1OC` [Cpd 7, (2S,3R,4S,6S)-2-(5-(1-(benzo[b]thiophen-2-yl)vinyl)-2-hydroxy-4-methoxyphenyl)-6-(hydroxymethyl)tetrahydro-2H-pyran-3,4-diol], for which the inhibition at 3 µM was determined as 6% against human SGLT2 and 43% against human SGLT1.

Take `C=C(c1cc2ccccc2s1)c1cc([C@@H]2O[C@H](CO)C[C@H](O)[C@H]2O)c(O)cc1C` [Cpd 8, (2S,3R,4S,6S)-2-(5-(1-(benzo[b]thiophen-2-yl)vinyl)-2-hydroxy-4-methylphenyl)-6-(hydroxymethyl)tetrahydro-2H-pyran-3,4-diol]: the inhibition at 3 µM came out at 25% against human SGLT2 and 41% on human SGLT1.

`COc1cc(O)c([C@@H]2O[C@H](CO)C[C@H](O)[C@H]2O)cc1C1(c2cc3ccccc3s2)CC1` [Cpd 9, (2S,3R,4S,6S)-2-(5-(1-(benzo[b]thiophen-2-yl)cyclopropyl)-2-hydroxy-4-methoxyphenyl)-6-(hydroxymethyl)tetrahydro-2H-pyran-3,4-diol]: the inhibition at 3 µM on human SGLT2 was found to be 57%; against human SGLT1 it was 49%.

Regarding `Cc1cc(O)c([C@@H]2O[C@H](CO)C[C@H](O)[C@H]2O)cc1C1(c2cc3ccccc3s2)CC1` [Cpd 10, (2S,3R,4S,6S)-2-(5-(1-(benzo[b]thiophen-2-yl)cyclopropyl)-2-hydroxy-4-methylphenyl)-6-(hydroxymethyl)tetrahydro-2H-pyran-3,4-diol], the IC50 is 223 nM against human SGLT2 and greater than 3000 nM on human SGLT1.

Regarding `CCc1cc(O)c([C@@H]2O[C@H](CO)C[C@H](O)[C@H]2O)cc1Cc1cc2ccccc2s1` [Cpd 11, (2S,3R,4S,6S)-2-(5-(benzo[b]thiophen-2-ylmethyl)-4-ethyl-2-hydroxyphenyl)-6-(hydroxymethyl)tetrahydro-2H-pyran-3,4-diol], the IC50 on human SGLT2 worked out at 61 nM. In addition, at human SGLT1, the inhibition at 3 µM stood at 95%.

`OC[C@@H]1C[C@H](O)[C@@H](O)[C@H](c2cc(Cc3cc4ccccc4s3)c(C3CC3)cc2O)O1` [Cpd 12, (2S,3R,4S,6S)-2-(5-(benzo[b]thiophen-2-ylmethyl)-4-cyclopropyl-2-hydroxyphenyl)-6-(hydroxymethyl)tetrahydro-2H-pyran-3,4-diol]: the values for the concentration for half-maximal inhibition (IC50) against human SGLT2 and at human SGLT1 were 683 nM and 99 nM, respectively.

The compound `N#Cc1cc(O)c([C@@H]2O[C@H](CO)C[C@H](O)[C@H]2O)cc1Cc1cc2ccccc2s1` [Cpd 13, 2-(benzo[b]thiophen-2-ylmethyl)-4-((2S,3R,4S,6S)-3,4-dihydroxy-6-(hydroxymethyl)tetrahydro-2H-pyran-2-yl)-5-hydroxybenzonitrile] came in with an inhibition at 0.3 µM against human SGLT2 of 73%. The inhibition at 3 µM on human SGLT1 was found to be 57%.

On to `COc1cc(O)c([C@@H]2O[C@H](CO)C[C@H](O)[C@H]2O)cc1C(C)(C)c1cc2ccccc2s1` [Cpd 14, (2S,3R,4S,6S)-2-(5-(2-(benzo[b]thiophen-2-yl)propan-2-yl)-2-hydroxy-4-methoxyphenyl)-6-(hydroxymethyl)tetrahydro-2H-pyran-3,4-diol], for which the inhibition at 0.3 µM against human SGLT2 stood at 54%; against human SGLT1 (compound at 0.3 μM), 46%.

`Cc1cc(O)c([C@@H]2O[C@H](CO)C[C@H](O)[C@H]2O)cc1C(C)(C)c1cc2ccccc2s1` [Cpd 15, (2S,3R,4S,6S)-2-(5-(2-(benzo[b]thiophen-2-yl)propan-2-yl)-2-hydroxy-4-methylphenyl)-6-(hydroxymethyl)tetrahydro-2H-pyran-3,4-diol] registered an inhibition at 0.3 µM against human SGLT2 of 25%. In addition, on human SGLT1, 3 µM produced 52% inhibition.

As a reminder, the IC50 is the point on the concentration scale where inhibition reaches its midpoint. Low readings indicate higher potency, high ones lower potency. As usually defined, the inhibition is the drop in the measured response relative to a control, in per cent. Lower therefore signals a weak effect.
